Among the test systems are CCRF-CEM; HCT-116; HCT-15; HOP-62; HOP-92; Malme-3M; NCI-H23; NCI-H522; OVCAR-3; OVCAR-4; SF-268; SK-MEL-5; SK-OV-3; SR; SW-620; T47D; TK-10; U-251; NCI/ADR-RES.
What all share (experiment): growth of human tumour cells (NCI), 48 h

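Protocol summary: plate cells (96-well), add compound at 5 concentrations, incubate 48 h, interpolate endpoints linearly. GI50: concentration for 50% inhibition of growth.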 Activity calls are given as the source filed them. Cut-off read from the data, not from the text of the source: active = GI50 up to about 1.1 µM and inactive = higher.

On to `CCCN1C(=O)CN(S(=O)(=O)c2ccc(Cl)cc2)C1=O`, for which the GI50 with CCRF-CEM was > 100 µM (inactive); in the assay with HCT-116, > 100 µM (inactive); with HCT-15, more than 100 µM; with HOP-62 it was > 100 µM (inactive); with HOP-92, > 100 µM (inactive); with Malme-3M, > 100 µM (inactive). The GI50 in the assay with NCI-H23, in the assay on NCI-H522, with OVCAR-3, with OVCAR-4, with SF-268 and with SK-MEL-5 was > 100 µM (inactive) each time. Further, the GI50 with SK-OV-3 is > 100 µM (inactive); with SR, 71 µM (inactive); in the assay on SW-620, > 100 µM (inactive); in the assay on T47D, > 100 µM (inactive); in the assay on TK-10 it was > 100 µM (inactive); in the assay on U-251, > 100 µM (inactive).

On to `COc1cc(C2SCC(=O)N2Cc2ccccc2)cc(OC)c1OC` (configuration not stated), for which the GI50 in the assay with CCRF-CEM is > 100 µM (inactive); in the assay on HCT-116 it was > 100 µM (inactive); in the assay with HCT-15, more than 100 µM; in the assay on HOP-92 it was 13.2 µM (inactive); with NCI-H23 it was > 100 µM (inactive); in the assay with NCI-H522 it was 90.4 µM (inactive). The GI50 in the assay on NCI/ADR-RES, in the assay with OVCAR-3, with OVCAR-4, in the assay with SF-268, with SK-MEL-5 and with SK-OV-3 was > 100 µM (inactive) throughout. Besides, the GI50 in the assay with SR, with SW-620, in the assay with TK-10 and in the assay with U-251 was > 100 µM (inactive) each time.

Turning to `CC12CCC3c4cc(Br)c(O)c(Br)c4CCC3C1CCC2O` (configuration not stated), the GI50 with CCRF-CEM is 24.3 µM (inactive); in the assay on HCT-116, 19.1 µM (inactive); with HOP-92, > 10 µM (inactive); in the assay on Malme-3M, 14.3 µM (inactive); in the assay on NCI/ADR-RES, 18.5 µM (inactive); in the assay with OVCAR-3 it was 18.9 µM (inactive). The GI50 is 19.8 µM (inactive) in the assay with SF-268; 23.5 µM (inactive) with SK-OV-3; 14.2 µM (inactive) in the assay on SW-620; 26.2 µM (inactive) with T47D; 19.8 µM (inactive) in the assay with TK-10; 15 µM (inactive) in the assay with U-251.

Take `CC1(C)CC(=O)C=C(NC(=O)c2ccccc2)C1`: the GI50 was > 100 µM (inactive) in the assay with CCRF-CEM; > 100 µM (inactive) in the assay with HCT-116; more than 100 µM in the assay with HCT-15; > 100 µM (inactive) with HOP-62; > 100 µM (inactive) in the assay on HOP-92; > 100 µM (inactive) with Malme-3M. For the same compound, the GI50 with NCI-H23, in the assay on NCI-H522, in the assay with OVCAR-3, with OVCAR-4, in the assay on SF-268 and in the assay with SK-MEL-5 was > 100 µM (inactive) in each case. The GI50 with SK-OV-3, in the assay with SW-620, with TK-10 and in the assay on U-251 was > 100 µM (inactive) each time.

As for `NC(=O)C(=CN1CC(=O)NC1=S)C(N)=O`, the GI50 is > 100 µM (inactive) in the assay with HCT-116; more than 100 µM with HCT-15; > 100 µM (inactive) with HOP-62; > 100 µM (inactive) in the assay on HOP-92; > 100 µM (inactive) in the assay on NCI-H23; > 100 µM (inactive) in the assay on NCI/ADR-RES. The GI50 in the assay with OVCAR-3, in the assay with OVCAR-4, in the assay on SF-268, with SK-MEL-5, in the assay with SK-OV-3 and in the assay on SW-620 was > 100 µM (inactive) each time. For the same compound, the GI50 with T47D, with TK-10 and in the assay with U-251 was > 100 µM (inactive) in each case.

Turning to `OC1C#CCSCC#C/C=C\1` (configuration not stated), the GI50 in the assay on CCRF-CEM was 27 µM (inactive); in the assay with HCT-116, 62.1 µM (inactive); with HCT-15 it was more than 100 µM; with HOP-62, > 100 µM (inactive); with HOP-92 it was 62.2 µM (inactive); in the assay with Malme-3M it was 47.1 µM (inactive). Further, the GI50 with NCI-H23 was 80.4 µM (inactive); in the assay on NCI-H522, 17.8 µM (inactive); with NCI/ADR-RES, 1.93 µM (inactive); in the assay with OVCAR-3, > 100 µM (inactive); in the assay on OVCAR-4, > 100 µM (inactive); with SF-268 it was > 100 µM (inactive). Besides, the GI50 in the assay with SK-OV-3 is > 100 µM (inactive); with SR, > 100 µM (inactive); in the assay with SW-620 it was 18.4 µM (inactive); in the assay with TK-10, > 100 µM (inactive); with U-251 it was > 100 µM (inactive).

For `COc1c(C)c(C/C=C(\C)CC/C=C(\C)CC/C=C(\C)CCC=C(C)C)c(OC)c2ccccc12`, the GI50 in the assay on CCRF-CEM is 28.5 µM (inactive); with HCT-116 it was > 100 µM (inactive); with HCT-15, more than 100 µM; in the assay on HOP-62 it was > 100 µM (inactive); in the assay with HOP-92, > 100 µM (inactive); with NCI-H23 it was > 100 µM (inactive). Also, the GI50 in the assay on NCI-H522, in the assay with NCI/ADR-RES, with OVCAR-3, in the assay on OVCAR-4, in the assay with SF-268 and with SK-MEL-5 was > 100 µM (inactive) each time. In addition, the GI50 is > 100 µM (inactive) in the assay with SK-OV-3; 35.7 µM (inactive) with SR; > 100 µM (inactive) with SW-620; > 100 µM (inactive) in the assay with TK-10; > 100 µM (inactive) with U-251.

As to `C/C(=C1/N=C(c2ccccc2)OC1=O)c1cccs1`, the GI50 with CCRF-CEM is > 100 µM (inactive); in the assay on HCT-116, > 100 µM (inactive); in the assay with HCT-15, more than 100 µM; in the assay on HOP-62, 55 µM (inactive); with HOP-92, > 100 µM (inactive); with Malme-3M, > 100 µM (inactive). The GI50 with NCI-H23 was > 100 µM (inactive); with NCI-H522, 59.8 µM (inactive); in the assay on OVCAR-3, > 100 µM (inactive); with OVCAR-4, 37.3 µM (inactive); in the assay on SF-268, > 100 µM (inactive); with SK-MEL-5, > 100 µM (inactive). The GI50 in the assay on SK-OV-3, in the assay with SR, in the assay with SW-620, in the assay on T47D, with TK-10 and in the assay on U-251 was > 100 µM (inactive) each time.

In the case of `COc1ccc2nccc(C3=CCC4CCN(C(=O)c5ccccc5)C3C4)c2c1` (configuration not stated), the GI50 is 99.8 µM (inactive) in the assay with CCRF-CEM; > 100 µM (inactive) in the assay on HCT-116; more than 100 µM in the assay on HCT-15; > 100 µM (inactive) in the assay on HOP-62; > 100 µM (inactive) in the assay with HOP-92; > 100 µM (inactive) with Malme-3M. The GI50 was > 100 µM (inactive) in the assay on NCI-H23; > 100 µM (inactive) in the assay with NCI-H522; 86.9 µM (inactive) in the assay on OVCAR-3; 81.8 µM (inactive) with OVCAR-4; > 100 µM (inactive) in the assay on SF-268; 93.3 µM (inactive) in the assay with SK-MEL-5. The GI50 in the assay with SK-OV-3, with SW-620, in the assay with TK-10 and with U-251 was > 100 µM (inactive) throughout.

Regarding `C=CCOC(=O)NC1C(OC(C)[C@@H](NC(=O)OCc2ccccc2)C(=O)OC(C)(C)C)OC(COC(C)=O)C(OC(C)=O)C1OC(C)=O` (some centres not stated), the GI50 with CCRF-CEM was 53.3 µM (inactive); with HCT-116 it was > 100 µM (inactive); with HCT-15, more than 100 µM; in the assay on HOP-62 it was > 100 µM (inactive); in the assay on HOP-92, > 100 µM (inactive); in the assay on Malme-3M, > 100 µM (inactive). The GI50 was > 100 µM (inactive) in the assay on NCI-H23; 63.8 µM (inactive) in the assay with NCI-H522; 50.6 µM (inactive) in the assay with NCI/ADR-RES; > 100 µM (inactive) in the assay on OVCAR-3; > 100 µM (inactive) in the assay on OVCAR-4; > 100 µM (inactive) with SF-268. In addition, the GI50 with SK-MEL-5 is > 100 µM (inactive); with SK-OV-3 it was > 100 µM (inactive); in the assay with SR it was 79.8 µM (inactive); with SW-620 it was > 100 µM (inactive); in the assay with TK-10 it was > 100 µM (inactive); in the assay on U-251, > 100 µM (inactive).

With `Cc1ccc(S(=O)(=O)NC(=O)Nc2c(S(N)(=O)=O)cc(S(N)(=O)=O)c(Cl)c2Cl)cc1`, the GI50 in the assay on CCRF-CEM was > 100 µM (inactive); in the assay with HCT-116, > 100 µM (inactive); with HCT-15, more than 100 µM; in the assay with HOP-92, > 100 µM (inactive); in the assay on Malme-3M, > 100 µM (inactive); in the assay with NCI-H23, > 100 µM (inactive). The GI50 with NCI-H522, in the assay on NCI/ADR-RES, in the assay with OVCAR-3, in the assay with OVCAR-4, in the assay with SF-268 and in the assay with SK-MEL-5 was > 100 µM (inactive) in each case. In addition, the GI50 in the assay on SK-OV-3, in the assay on SR, in the assay with SW-620, with TK-10 and with U-251 was > 100 µM (inactive) in each case.

Take `C[N+](C)([O-])CCCNc1ccnc2cccc([N+](=O)[O-])c12`: the GI50 with CCRF-CEM is 31.6 µM (inactive); with HCT-116 it was 28.4 µM (inactive); in the assay with HCT-15, 24.2 µM; with HOP-62 it was 83 µM (inactive); in the assay on Malme-3M, 28.1 µM (inactive); with NCI-H23, 34.6 µM (inactive). In addition, the GI50 in the assay on NCI-H522 is 14.2 µM (inactive); in the assay on OVCAR-3, 20.7 µM (inactive); in the assay on OVCAR-4, 20.5 µM (inactive); with SF-268, 27 µM (inactive); with SK-MEL-5, 16.1 µM (inactive); in the assay with SK-OV-3, 80.7 µM (inactive). Besides, the GI50 in the assay with SR was 34.2 µM (inactive); with SW-620, 31.1 µM (inactive); in the assay with T47D, 40 µM (inactive); in the assay with TK-10, 24.9 µM (inactive); with U-251 it was 34.8 µM (inactive).
